Source: US20040229772A1, “Peptides responsive to antibodies against consensus peptide of the CS4-CFA/I family proteins” (priority 1996, published 2004)
No end group written: not given here.

Tests used:
[1] = system: 0166; assay: Western blot of immune serum with denatured protein; type: binding, E. coli; details: 4 strong reaction, rabbit serum
Description: (§1) Rabbits were bled, then immunized on day 0 with a composition containing 280 μg peptide/BSA conjugate in Freund's complete adjuvant. On day 21, the animals were boosted with 140 μg peptide/BSA conjugate in Freund's incomplete adjuvant. Blood was drawn on day 32. The interaction of antibodies raised against the specific antigens of the denatured proteins of the various strains was studied by comparing interaction of serum from the animals obtained on day 0 with response on to serum from the animals obtained on day 32 by Western blot. In all instances, the Western blot was negative for reaction with serum obtained on day 0. The Western blot data on interaction of immune serum collected on day 32 with the denatured proteins is given below with 0 being no reaction and 4 being a strong reaction:
(§2) Rabbits were given a composition containing 400 μg peptide of the formula: […] (SEQ ID NO:1) in complete Freund's adjuvant. The response was evaluated as in Example 2:
(§3) The same study was done comparing antibodies raised to denatured proteins of PCF 0166.
(§4) Effect of antibody raised to whole CS2 protein was studied in the manner of example 5.

[2] = system: CFA/I; assay: as above; type: binding, E. coli; details: 4 strong reaction, rabbit serum
Description: as §1, §2, §3, §4

[3] = system: CS17; assay: as above; type: binding, E. coli; details: 4 strong reaction, rabbit serum
Description: as §1, §2, §3, §4

[4] = system: CS1; assay: as above; type: binding, E. coli; details: 4 strong reaction, rabbit serum
Description: as §1, §2, §3, §4

[5] = system: CS2; assay: as above; type: binding, E. coli; details: 4 strong reaction, rabbit serum
Description: as §1, §2, §3, §4

[6] = system: CS4; assay: as above; type: binding, E. coli; details: 4 strong reaction, rabbit serum
Description: as §1, §2, §3, §4

[7] = system: whole bacteria, CF CS1; assay: Agglutination of whole bacteria by serum of immunized rabbits; type: cell-based, E. coli; details: two rabbits immunized per preparation
[8] = system: whole bacteria, CF CS2; assay: as above; type: cell-based, E. coli; details: two rabbits immunized per preparation
[9] = system: whole bacteria, CF CS4; assay: as above; type: cell-based, E. coli; details: two rabbits immunized per preparation
[10] = system: whole bacteria, CF CS17; assay: as above; type: cell-based, E. coli; details: two rabbits immunized per preparation
[11] = system: whole bacteria, CF 0166; assay: as above; type: cell-based, E. coli; details: two rabbits immunized per preparation
[12] = system: whole bacteria, CF CFA/1; assay: as above; type: cell-based, E. coli; details: two rabbits immunized per preparation

Question: Which results are given for “peptide/BSA conjugate: consensus peptide with added terminal cysteine (SEQ ID NO:37) conjugated to iodoacetylated bovine serum albumin (CVEKNITVTASVDPTIDLLQADGSALPSAVALTYSPA; also: conjugated via added terminal Cys to iodoacetylated BSA; listed as Escherichia coli)”?
Answer: Western blot reaction of immune serum with denatured protein ([1]; titer 1:50, 0 no reaction): 4; Western blot reaction of immune serum with denatured protein ([1]; titer 1:500, 0 no reaction): 1; Western blot reaction of immune serum with denatured protein ([1]; titer 1:5000, 0 no reaction): 3; Western blot reaction of immune serum with denatured protein ([2]; titer 1:50, 0 no reaction): 4; Western blot reaction of immune serum with denatured protein ([2]; titer 1:500, 0 no reaction): 3; Western blot reaction of immune serum with denatured protein ([2]; titer 1:5000, 0 no reaction): 2; Western blot reaction of immune serum with denatured protein ([3]; titer 1:50, 0 no reaction): 4; Western blot reaction of immune serum with denatured protein ([3]; titer 1:500, 0 no reaction): 3; Western blot reaction of immune serum with denatured protein ([3]; titer 1:5000, 0 no reaction): 2; Western blot reaction of immune serum with denatured protein ([3]; titer 1:50000, 0 no reaction): 0.5; Western blot reaction of immune serum with denatured protein ([4]; titer 1:50, 0 no reaction): 4; Western blot reaction of immune serum with denatured protein ([4]; titer 1:500, 0 no reaction): 4; Western blot reaction of immune serum with denatured protein ([4]; titer 1:5000, 0 no reaction): 4; Western blot reaction of immune serum with denatured protein ([4]; titer 1:50000, 0 no reaction): 4; Western blot reaction of immune serum with denatured protein ([5]; titer 1:50, 0 no reaction): 4; Western blot reaction of immune serum with denatured protein ([5]; titer 1:500, 0 no reaction): 4; Western blot reaction of immune serum with denatured protein ([5]; titer 1:5000, 0 no reaction): 4; Western blot reaction of immune serum with denatured protein ([6]; titer 1:50, 0 no reaction): 4; Western blot reaction of immune serum with denatured protein ([6]; titer 1:500, 0 no reaction): 4; Western blot reaction of immune serum with denatured protein ([6]; titer 1:5000, 0 no reaction): 3; Western blot reaction of immune serum with denatured protein ([6]; titer 1:50000, 0 no reaction): 2; agglutination of whole bacteria by serum [7]: 1/2; agglutination of whole bacteria by serum [8]: 2/2; agglutination of whole bacteria by serum [9]: 0/2; agglutination of whole bacteria by serum [10]: 0/2; agglutination of whole bacteria by serum [11]: 1/2; agglutination of whole bacteria by serum [12]: 1/2
